According to ChEMBL document CHEMBL1201862, “PubChem BioAssay data set” (2004):
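In this assay, cells in 96-well plates receive the compound at five concentrations for 48 hours. Endpoints are linearly interpolated between the surrounding concentrations. GI50 is the concentration that inhibits growth by half.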 Activity calls are given as the source filed them. No stated cut-off is given here; in the data, active = GI50 up to about 1.1 µM and inactive = higher.

How the values were obtained:
Assay in all cases: NCI anticancer screen, dose series, 48 h
A498 = tested on: A498
ACHN = tested on: ACHN
CCRF-CEM = tested on: CCRF-CEM
HCT-116 = tested on: HCT-116
HT-29 = tested on: HT-29
NCI-H226 = tested on: NCI-H226
NCI-H460 = tested on: NCI-H460
OVCAR-5 = tested on: OVCAR-5
RPMI-8226 = tested on: RPMI-8226
SF-268 = tested on: SF-268
SK-MEL-5 = tested on: SK-MEL-5
SK-OV-3 = tested on: SK-OV-3
SN12C = tested on: SN12C
TK-10 = tested on: TK-10
UACC-62 = tested on: UACC-62
UO-31 = tested on: UO-31

Structure (SMILES) | GI50 (A498) | GI50 (ACHN) | GI50 (CCRF-CEM) | GI50 (HCT-116) | GI50 (HT-29) | GI50 (NCI-H226) | GI50 (NCI-H460) | GI50 (OVCAR-5) | GI50 (RPMI-8226) | GI50 (SF-268) | GI50 (SK-MEL-5) | GI50 (SK-OV-3) | GI50 (SN12C) | GI50 (TK-10) | GI50 (UACC-62) | GI50 (UO-31)
CCOc1ccc(OP2(=O)NC(=O)C=C(C)N2)cc1 (stereo not drawn) | > 100 µM (inactive) | 90.8 µM (inactive) | 44.2 µM (inactive) | > 100 µM (inactive) | > 100 µM (inactive) | > 100 µM (inactive) | > 100 µM (inactive) | > 100 µM (inactive) | > 100 µM (inactive) | > 100 µM (inactive) | > 100 µM (inactive) | > 100 µM (inactive) | > 100 µM (inactive) | > 100 µM (inactive) | > 100 µM (inactive) | > 100 µM (inactive)
CCc1cccc(C(C)CC)c1NC(=O)CC1C(=O)Nc2ccccc2S1(=O)=O (stereo not drawn) | 33.6 µM (inactive) | 23.6 µM (inactive) | 5.22 µM (inactive) | – | 15.2 µM (inactive) | – | 23.9 µM (inactive) | 70.1 µM (inactive) | 5.38 µM (inactive) | 25.8 µM (inactive) | 45.9 µM (inactive) | 43.2 µM (inactive) | 18.4 µM (inactive) | 28.7 µM (inactive) | 22.3 µM (inactive) | 34 µM (inactive)
O=C(c1ccncc1)n1nc(-c2ccccc2)c(/N=N/c2ccc([N+](=O)[O-])cc2)c1-c1ccccc1 | > 100 µM (inactive) | – | > 10 µM (inactive) | 73.6 µM (inactive) | 38.7 µM (inactive) | 2.37 µM (inactive) | – | – | 28.4 µM (inactive) | 49.5 µM (inactive) | 27.3 µM (inactive) | 94.8 µM (inactive) | > 100 µM (inactive) | 57.8 µM (inactive) | 90.8 µM (inactive) | 15.9 µM (inactive)
O=C1CCC(Cl)=CC2CCCN12 (stereo not drawn) | > 100 µM (inactive) | > 100 µM (inactive) | > 10 µM (inactive) | > 100 µM (inactive) | > 100 µM (inactive) | > 100 µM (inactive) | > 100 µM (inactive) | > 100 µM (inactive) | > 100 µM (inactive) | – | > 100 µM (inactive) | > 100 µM (inactive) | > 100 µM (inactive) | > 100 µM (inactive) | > 100 µM (inactive) | > 100 µM (inactive)
COc1ccc(-c2c(C3=NCCCN3)nnn2-c2ccccc2)cc1 | > 100 µM (inactive) | > 100 µM (inactive) | > 100 µM (inactive) | > 100 µM (inactive) | > 100 µM (inactive) | > 100 µM (inactive) | > 100 µM (inactive) | > 100 µM (inactive) | > 100 µM (inactive) | > 100 µM (inactive) | > 100 µM (inactive) | > 100 µM (inactive) | > 100 µM (inactive) | > 100 µM (inactive) | > 100 µM (inactive) | > 100 µM (inactive)
COc1ccc2c([nH]c3cc(O)c(C)cc32)c1C=O | – | > 25 µM (inactive) | 23.6 µM (inactive) | > 25 µM (inactive) | > 25 µM (inactive) | > 25 µM (inactive) | 11.2 µM (inactive) | > 25 µM (inactive) | > 25 µM (inactive) | > 25 µM (inactive) | > 25 µM (inactive) | > 25 µM (inactive) | > 25 µM (inactive) | > 25 µM (inactive) | > 25 µM (inactive) | > 25 µM (inactive)
CC1C=CC(C(N)C(=O)O)O1 (stereo not drawn) | > 100 µM (inactive) | > 100 µM (inactive) | > 100 µM (inactive) | > 100 µM (inactive) | > 100 µM (inactive) | > 100 µM (inactive) | > 100 µM (inactive) | > 100 µM (inactive) | > 100 µM (inactive) | > 100 µM (inactive) | > 100 µM (inactive) | > 100 µM (inactive) | > 100 µM (inactive) | – | > 100 µM (inactive) | > 100 µM (inactive)
Nn1c(S)nnc1N/N=C1/C(=O)Nc2c(Cl)cc(Cl)cc21 | 65.5 µM (inactive) | 76.9 µM (inactive) | 37.1 µM (inactive) | > 100 µM (inactive) | > 100 µM (inactive) | 52.1 µM (inactive) | > 100 µM (inactive) | > 100 µM (inactive) | > 100 µM (inactive) | > 100 µM (inactive) | > 100 µM (inactive) | 37.2 µM (inactive) | 94.8 µM (inactive) | > 100 µM (inactive) | > 100 µM (inactive) | 47.6 µM (inactive)
Nc1ccc2nc(Nc3ccc(Cl)c(Cl)c3)cnc2c1 | – | 22.2 µM (inactive) | 1.11 µM (active) | 18.1 µM (inactive) | 16.2 µM (inactive) | 15.5 µM (inactive) | 17.6 µM (inactive) | 19.1 µM (inactive) | 12.2 µM (inactive) | 13.9 µM (inactive) | 37.2 µM (inactive) | – | 14.9 µM (inactive) | 19.2 µM (inactive) | – | 11.9 µM (inactive)
C=CCNC(=S)OCCCCCCCCCC | 18.5 µM (inactive) | 18.5 µM (inactive) | 15.7 µM (inactive) | 16.9 µM (inactive) | 18.6 µM (inactive) | – | 17.6 µM (inactive) | 10.2 µM (inactive) | 18.8 µM (inactive) | 19.5 µM (inactive) | 16.7 µM (inactive) | 24.3 µM (inactive) | 17.7 µM (inactive) | 11.7 µM (inactive) | 16.5 µM (inactive) | 12.3 µM (inactive)
CC1OC(n2ccc(=O)[nH]c2=O)C=C(OC(=O)c2ccccc2)C1=O (stereo not drawn) | – | 76.7 µM (inactive) | > 100 µM (inactive) | – | 44.6 µM (inactive) | – | 48.6 µM (inactive) | – | > 100 µM (inactive) | – | 56.1 µM (inactive) | > 100 µM (inactive) | 88.3 µM (inactive) | 49 µM (inactive) | > 100 µM (inactive) | 55.6 µM (inactive)
CC(=O)OCC1OC(N=[N+]=[N-])C(OC(C)=O)C(OC(C)=O)C1OC1OC(COC(C)=O)C(OC(C)=O)C(OC(C)=O)C1OC(C)=O (stereo not drawn) | > 100 µM (inactive) | > 100 µM (inactive) | > 100 µM (inactive) | – | > 100 µM (inactive) | – | > 100 µM (inactive) | > 100 µM (inactive) | > 100 µM (inactive) | > 100 µM (inactive) | > 100 µM (inactive) | > 100 µM (inactive) | > 100 µM (inactive) | 81.5 µM (inactive) | > 100 µM (inactive) | > 100 µM (inactive)
CN1CCc2c1nc(-c1ccccc1)c1c2N(C)CC1 | 26.1 µM (inactive) | > 100 µM (inactive) | 60.5 µM (inactive) | 28.1 µM (inactive) | 31.1 µM (inactive) | – | 71.1 µM (inactive) | > 100 µM (inactive) | 39.6 µM (inactive) | > 100 µM (inactive) | 36.1 µM (inactive) | > 100 µM (inactive) | 62.7 µM (inactive) | > 100 µM (inactive) | > 100 µM (inactive) | 14.7 µM (inactive)
CCCCCCCCCCCCCCCCCCCCCCC(=O)N[C@H]1CCc2cc(OC)c(OC)c(OC)c2-c2ccc(SC)c(=O)cc21 | 11.5 µM (inactive) | 63.8 µM (inactive) | 30.1 µM (inactive) | 26 µM (inactive) | 30.6 µM (inactive) | 2.52 µM (inactive) | 28.4 µM (inactive) | > 100 µM (inactive) | – | 59.7 µM (inactive) | 28.4 µM (inactive) | 7.19 µM (inactive) | 28.2 µM (inactive) | 40.1 µM (inactive) | 40 µM (inactive) | 48 µM (inactive)
